Experimental data as given in PubChem BioAssay (NCI).
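These data come from cells grown in 96-well plates and exposed to compound for 48 hours at five concentrations. TGI is the concentration that stops growth completely.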

Legend:
Assay in all cases: inhibition of tumour cell growth, NCI panel, 48 h
KM12 colon = system: KM12 colon
HT29 colon = system: HT29 colon
HOP-62 NSCLC = system: HOP-62 NSCLC
HCT-116 colon = system: HCT-116 colon
OVCAR-4 ovarian = system: OVCAR-4 ovarian
SK-MEL-28 melanoma = system: SK-MEL-28 melanoma
HS 578T breast = system: HS 578T breast
MOLT-4 leukemia = system: MOLT-4 leukemia
MDA-MB-231 breast = system: MDA-MB-231 breast
HOP-92 NSCLC = system: HOP-92 NSCLC
A498 renal = system: A498 renal
OVCAR-5 ovarian = system: OVCAR-5 ovarian

| Compound | TGI (KM12 colon) | TGI (HT29 colon) | TGI (HOP-62 NSCLC) | TGI (HCT-116 colon) | TGI (OVCAR-4 ovarian) | TGI (SK-MEL-28 melanoma) | TGI (HS 578T breast) | TGI (MOLT-4 leukemia) | TGI (MDA-MB-231 breast) | TGI (HOP-92 NSCLC) | TGI (A498 renal) | TGI (OVCAR-5 ovarian) |
| --- | --- | --- | --- | --- | --- | --- | --- | --- | --- | --- | --- | --- |
| O=C(CSCC(=O)N/N=C\c1cccc([N+](=O)[O-])c1)N/N=C\c1cccc([N+](=O)[O-])c1 | > 100 µM | > 100 µM | 16.3 µM | > 100 µM | > 100 µM | > 100 µM | > 100 µM | > 100 µM | 53.8 µM | > 100 µM | > 100 µM | – |
| CCOC(=O)c1nc2cc(C(F)(F)F)ccc2nc1Nc1ccc(C(=O)OC)s1 | > 100 µM | > 100 µM | > 100 µM | > 100 µM | > 100 µM | > 100 µM | > 100 µM | > 100 µM | 94.6 µM | 54 µM | 81.6 µM | > 100 µM |
| O=C1CCc2ccc(O)c(c2)Oc2ccc(cc2)C(Sc2ccccc2)CCO1 (stereo not drawn) | 29.5 µM | 30.1 µM | 30.9 µM | 29.8 µM | 26.1 µM | 31.6 µM | 36.2 µM | > 100 µM | 19.2 µM | 22.2 µM | 31.8 µM | 35.3 µM |
| Cc1c(N=C/C=C/c2ccccc2)c(=O)n(-c2ccccc2)n1C | 77.2 µM | > 100 µM | 95.8 µM | 29.2 µM | 40.9 µM | 39.8 µM | 69.8 µM | 83.8 µM | > 100 µM | > 100 µM | 87.2 µM | > 100 µM |
| COc1ccc2c(c1)CCCN1CCc3ccccc3C21 (stereo not drawn) | > 100 µM | > 100 µM | > 100 µM | 72.1 µM | > 100 µM | > 100 µM | 94 µM | > 100 µM | 72.2 µM | > 100 µM | > 100 µM | > 100 µM |
| NC1CCC(N(CC(=O)O)CC(=O)O)C(N(CC(=O)O)CC(=O)O)C1 (stereo not drawn) | > 100 µM | > 100 µM | > 100 µM | > 100 µM | > 100 µM | > 100 µM | > 100 µM | > 100 µM | > 100 µM | > 100 µM | > 100 µM | > 100 µM |
| O=C(/C=C/c1ccccc1)Nc1ccccc1SCCCCl | > 64.6 µM | > 41.4 µM | > 100 µM | 39.1 µM | > 100 µM | > 100 µM | > 29.3 µM | > 100 µM | 74.5 µM | > 30.9 µM | > 29.5 µM | > 100 µM |
| CC(=O)NC(NCCN)(c1ccccc1)c1ccccc1 | > 100 µM | > 100 µM | > 100 µM | > 100 µM | > 100 µM | > 100 µM | > 100 µM | > 100 µM | > 100 µM | > 100 µM | > 100 µM | > 100 µM |
| CCOC(=O)NC(Nc1ccc(F)cc1)(C(=O)OCC)C(F)(F)F (stereo not drawn) | > 100 µM | > 100 µM | > 100 µM | > 100 µM | > 100 µM | > 100 µM | > 100 µM | > 100 µM | > 100 µM | > 100 µM | > 100 µM | > 100 µM |
| Fc1ccc2c3c([nH]c2c1)CCN(Cc1ccccc1)C3 | 29 µM | 47.9 µM | 28.5 µM | 32.9 µM | 56.1 µM | 30.3 µM | 30.8 µM | 42.5 µM | 43.8 µM | 18.7 µM | 31.7 µM | 47.9 µM |
| CC1=C(O)c2ccccc2C(=O)C1=O | > 100 µM | > 100 µM | > 100 µM | > 100 µM | > 100 µM | > 100 µM | > 100 µM | > 100 µM | > 100 µM | > 100 µM | > 100 µM | > 100 µM |
| O=[S@]1c2ccc3ccccc3c2N[C@@H]2[C@H]1[C@H]1C=C[C@@H]2C1 | > 100 µM | > 100 µM | > 100 µM | > 100 µM | > 100 µM | > 100 µM | > 100 µM | > 100 µM | > 100 µM | > 100 µM | > 100 µM | > 100 µM |
| COc1ccc(OC)c2c1C=CC(Br)=CC2 | 0.85 µM | 0.284 µM | 0.915 µM | 0.672 µM | > 1 µM | > 1 µM | > 1 µM | 0.478 µM | 0.958 µM | 0.463 µM | > 1 µM | – |
| CC(C)=CCC[C@@H](C)C1=C(O)C(Nc2ccccc2Cl)=C(C)C(=O)C1=O | 30 µM | 26.3 µM | > 64.2 µM | > 50.9 µM | > 75 µM | > 75 µM | > 69.9 µM | > 57.5 µM | > 70.8 µM | > 67.8 µM | > 56.9 µM | > 75 µM |
| [B-][P+](CC[P+]1([B-])[C@@H](C)[C@@H](O)[C@H](O)[C@@H]1C)(c1ccccc1)c1ccccc1OC (stereo partly drawn) | 33.1 µM | 40.6 µM | 33.6 µM | 35.3 µM | 31.7 µM | 32.7 µM | 22.6 µM | 41.7 µM | 29.5 µM | 33 µM | 32 µM | 32 µM |
